Experimental data: patent publication US7741445B2, “Breast cancer resistance protein (BCRP) antibodies” (University of Maryland, Baltimore, priority 1998, dated 2010)
Entries after “also recorded” stand apart in the source; their conditions may differ.

Legend:
[1] = system: MCF-7/AdrVp; details: subline selected with doxorubicin in the presence of verapamil; cited from earlier work
[2] = system: cells that overexpress Pgp or MRP; details: cited from earlier work
[3] = system: BCRP-transfected MCF-7 cells; assay: FTC effects on BBR3390 accumulation and retention, flow cytometry; format: cell-based, human; details: 10 uM FTC
Description: MCF-7 cells transfected with either the pcDNA3 empty vector or pcDNA3 containing the full-length BCRP cDNA (transfectant clone 8) were cultured as monolayers in tissue culture flasks. The effects of FTC on the accumulation of the aza-anthrapyrazole BBR3390 were measured by exposing these cells to the fluorescent aza-anthrapyrazole BBR3390 (5 uM) in the presence or absence of 10 uM FTC for 60 minutes. Then, the cells were removed from the flasks by trypsinization, and intracellular BBR3390 content was measured by flow cytometry. The effects of FTC on BBR3390 retention were measured by exposing another set of cells (vector control and transfectant clone 8) to 5 uM BBR3390 with and without 10 uM FTC for 60 minutes, washing the cells free of drug, then reincubating the cells for an additional 30 minutes in fresh medium with and without FTC. Intracellular BBR3390 content was measured by flow cytometry. (See FIG. 10).

[4] = system: MCF-7/BCRP transfectant clones 6 and 8; assay: Sulforhodamine-B (SRB) cytotoxicity assay; format: cell-based, human; details: compared to clone 19, MCF-7 cells or empty vector-transfected controls
Description: (§1) The full-length BCRP cDNA was inserted into the multiple to cloning site of expression vector pcDNA3 (Invitrogen). Following subcloning of the pcDNA3-BCRP construct, DNA sequence analysis was performed to confirm that the insert in the clone that was chosen was in a sense orientation to the CMV promoter of the pcDNA3 vector. MCF-7 cells were transfected with pcDNA3-BCRP, using the calcium phosphate precipitation method (17), selected by culture with geneticin (G418, 1 mg/ml), then subclone by limiting dilution in 96 well flat-bottomed culture plates. Subclones were tested for expression of BCRP mRNA by Northern blot analysis, using radiolabeled Clone 8 cDNA as a probe (FIG. 4A). As a control, MCF-7 cells were also transfected with the empty pcDNA3 vector, then selected by growth in medium containing 1 mg/ml G418 (FIG. 4A).
The sensitivities of the various transfected sublines to chemotherapeutic agents were tested by the sulforhodamine-B (SRB) cytotoxicity assay (14). The LC50, defined as the concentration of drug that caused lethality to 50% of the cells, was calculated. From this, the “Fold of Resistance” (RF) was calculated by dividing the LC50 for a given drug against a transfected cell line by the LC50 of that drug against non-transfected MCF-7 cells. […] FIG. 5 contains the median LC50 values for multiple cytotoxicity experiments for all cell lines and drugs tested. […] The asterisk and solid line in FIG. 4D indicate MCF-7/W cells, the closed squares and dotted lines represent MCF-7/pcDNA3-BCRP clone 8 cells. The vertical bars in the figure represent the standard deviation of six replicate determinations.

[5] = system: EPP85-181RDB; details: pancreatic; cited from earlier work
[6] = system: MCF-7/AdrVp cells; details: MCF-7/AdrVp vs MCF-7; cited from earlier work
[7] = system: BCRP-overexpressing clones 6 and 8 (MCF-7 cells transfected with pcDNA3-BCRP); assay: Daunorubicin accumulation and retention by flow cytometry; format: cell-based, human
Description: as §1
Daunorubicin accumulation and retention was examined in the transfected cells by means of flow cytometry.

[8] = system: EPG85-257RDB; details: gastric; cited from earlier work
[9] = system: H69/AR; details: small cell lung; cited from earlier work
[10] = system: MCF-7/Adr; details: breast; cited from earlier work
[11] = system: MCF-7/VP; details: breast; cited from earlier work
[12] = system: H209/V6; details: H209/V6, small cell lung; cited from earlier work
[13] = system: MCF-7/MTX; details: breast; cited from earlier work
[14] = system: HL-60/MX2; details: HL-60/MX2, leukemia; cited from earlier work
[15] = system: MCF-7/Mitox; details: breast; cited from earlier work
[16] = system: EPP85-181RNOV; details: pancreatic; cited from earlier work
[17] = system: EPG85-257RNOV; details: gastric; cited from earlier work
[18] = system: H209/MX4; details: H209/MX4, small cell lung; cited from earlier work
[19] = system: 8226/MR20; details: 8226/MR20, myeloma; cited from earlier work
[20] = system: MCF-7/MXPR; details: breast; cited from earlier work
[21] = system: MCF-7/MXRS600; details: MCF-7/MXRS600, breast; cited from earlier work
[22] = system: HT29RNOV; details: colon; cited from earlier work
[23] = system: EPF86-079RNOV; details: fibrosarcoma; cited from earlier work
[24] = system: S1M1-3.2; details: S1M1-3.2, colon; cited from earlier work
[25] = system: MDA-MB-231RNOV; details: breast; cited from earlier work
[26] = system: MCF-7/MXRS250; details: MCF-7/MXRS250, breast; cited from earlier work
[27] = system: H209/MX2; details: H209/MX2, small cell lung; cited from earlier work

Compound: COc1cccc2c1C(=O)c1c(O)c3c(c(O)c1C2=O)CC(O)(C(=O)CO)CC3OC1CC(N2CCOCC2C#N)C(O)C(C)O1 (stereo not shown) [3′-deamino-3′[3-cyano-4-morpholinyl]doxorubicin]
- cross-resistance of MCF-7/AdrVp subline [1]: marked cross-resistance

Compound: COc1ccc2c3c([nH]c2c1)[C@H](C=C(C)C)N1C(=O)[C@@H]2CCCN2C(=O)[C@@H]1C3 [FTC, Fumitremorgin C]
- reversal of resistance [2]: does not reverse resistance
- effect on accumulation of BBR 3390 ([3]; 5 uM BBR3390, 60 minutes): able to enhance the accumulation
- effect on efflux of BBR 3390 ([3]; 5 uM BBR3390, 60 minutes then 30 minutes in fresh medium): inhibit the efflux

Compound: N.N.[Cl][Pt][Cl] [cisplatin]
- cross-resistance of MCF-7/AdrVp subline [1]: remains sensitive
- resistance / sensitivity of BCRP-overexpressing clones 6 and 8 to chemotherapeutic agent [4]: remained relatively sensitive

Compound: COc1cccc2c1C(=O)c1c(O)c3c(c(O)c1C2=O)C[C@@](O)(C(C)=O)C[C@@H]3O[C@H]1C[C@H](N)[C@H](O)[C@H](C)O1 [daunorubicin]
- Fold resistance to selecting agent [5]: 846 fold
- intracellular accumulation compared to MCF-7 cells [6]: marked reduction
- intracellular steady-state concentration of drug, of that attained in the vector control cells ([7]; MCF-7/BCRP clone 6 vs pcDNA3 vector control cells): ~50%
- intracellular steady-state concentration of drug, of that attained in the vector control cells ([7]; MCF-7/BCRP clone 8 vs pcDNA3 vector control cells): approximately 30%
- cross-resistance of MCF-7/AdrVp subline [1]: marked cross-resistance
- resistance / sensitivity of BCRP-overexpressing clones 6 and 8 to chemotherapeutic agent [4]: displayed resistance
- Fold resistance to selecting agent [8]: 1,857 fold

Compound: COc1cccc2c1C(=O)c1c(O)c3c(c(O)c1C2=O)C[C@@](O)(C(=O)CO)C[C@@H]3O[C@H]1C[C@H](N)[C@H](O)[C@H](C)O1 [doxorubicin]
- Fold resistance to selecting agent [9]: 100 fold
- Fold resistance to selecting agent [10]: 192 fold
- resistance / sensitivity of BCRP-overexpressing clones 6 and 8 to chemotherapeutic agent [4]: displayed resistance

Compound: COc1cc([C@@H]2c3cc4c(cc3[C@@H](O[C@@H]3O[C@@H]5CO[C@@H](C)O[C@H]5[C@H](O)[C@H]3O)[C@H]3COC(=O)[C@H]23)OCO4)cc(OC)c1O [etoposide]
- Fold resistance to selecting agent [11]: 26 fold
- Fold resistance to selecting agent [12]: 22 fold

Compound: CC(=O)[C@]1(O)Cc2c(O)c3c(c(O)c2[C@@H](O[C@H]2C[C@H](N)[C@H](O)[C@H](C)O2)C1)C(=O)c1ccccc1C3=O [idarubicin]
- cross-resistance of MCF-7/AdrVp subline [1]: not
- resistance / sensitivity of BCRP-overexpressing clones 6 and 8 to chemotherapeutic agent [4]: remained relatively sensitive

Compound: CN(Cc1cnc2nc(N)nc(N)c2n1)c1ccc(C(=O)N[C@@H](CCC(=O)O)C(=O)O)cc1 [methotrexate]
- Fold resistance to selecting agent [13]: 1,000 fold

Compound: O=C1c2c(O)ccc(O)c2C(=O)c2c(NCCNCCO)ccc(NCCNCCO)c21 [mitoxantrone]
- Fold resistance to selecting agent [14]: 35 fold
- Fold resistance to selecting agent [15]: 1,206 fold
- Fold resistance to selecting agent [16]: 27 fold
- Fold resistance to selecting agent [17]: 457 fold
- Fold resistance to selecting agent [18]: 4 fold
- Fold resistance to selecting agent [19]: 36 fold
- Fold resistance to selecting agent [20]: 270 fold
- Fold resistance to selecting agent [21]: 7,450 fold
- cross-resistance of MCF-7/AdrVp subline [1]: marked cross-resistance
- Fold resistance to selecting agent [22]: 100 fold
- resistance / sensitivity of BCRP-overexpressing clones 6 and 8 to chemotherapeutic agent [4]: displayed resistance; also recorded: greatest degree of resistance
- Fold resistance to selecting agent [23]: 7 fold
- Fold resistance to selecting agent [24]: 1,435 fold
- Fold resistance to selecting agent [25]: 93 fold
- Fold resistance to selecting agent [26]: 4,600 fold
- Fold resistance to selecting agent [27]: 2 fold

Compound: CC(=O)O[C@H]1C(=O)[C@@]2(C)[C@H]([C@H](OC(=O)c3ccccc3)[C@]3(O)C[C@H](OC(=O)[C@H](O)[C@@H](NC(=O)c4ccccc4)c4ccccc4)C(C)=C1C3(C)C)[C@]1(OC(C)=O)CO[C@@H]1C[C@@H]2O [paclitaxel]
- cross-resistance of MCF-7/AdrVp subline [1]: remains sensitive
- resistance / sensitivity of BCRP-overexpressing clones 6 and 8 to chemotherapeutic agent [4]: remained relatively sensitive

Compound: rhodamine 123
- intracellular accumulation compared to MCF-7 cells [6]: marked reduction
